# Measurements as given in patent US20120214802A1, “PYRROLIDINE COMPOUNDS WHICH INHIBIT BETA-SECRETASE ACTIVITY AND METHODS OF USE THEREOF” (priority 2009, published 2012).
# Tests used:
# memapsin 2 [1] = target: memapsin 2 (Homo sapiens, UniProt P56817); assay: Inhibition of memapsin 2 beta-secretase activity (fluorogenic substrate FS-2); type: biochemical; conditions: pH 4, 37° C., read-out: M2 Ki
# Outline: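 Memapsin 2 pre-incubated with compound for 20 min at pH 4, 37° C. Reaction started with fluorogenic substrate FS-2, […], derived from Swedish-variant APP beta-secretase site; inhibition measured from fluorescence.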
# memapsin 2 [2] = target: T1, memapsin 2 (Cricetulus griseus, UniProt G3IAK4); assay: Cellular Aβ IC50 determination (Aβ40 sandwich ELISA); type: cell-based, Chinese hamster; conditions: CHO cells over-expressing human APP695 with London and Swedish mutations, 24 h, read-out: M2 IC50
# T1 construct: endogenous in cells; host or cells: Chinese hamster ovary cells over-expressing human APP695 (London + Swedish)
# Experimental: The potency of compounds against memapsin 2 activity was determined in a cellular assay of Aβ production. […] Chinese hamster ovary cells that over-express human APP695 with the London and Swedish mutations were seeded in multi-well plates at 10% confluency. Compounds are dissolved in DMSO to concentrations near 1 mM, and diluted into culture media to a final concentration near 4 μM (final 0.4% DMSO). Compounds were diluted serially and applied to cells in multi-well plates 48 h after seeding. Incubation was continued in 5% CO2 at 37° C. for 24 h. Aliquots were removed and assayed for […] using a sandwich ELISA (BioSource International). Amount of Aβ40 over the range of concentration of compounds, relative to control incubations, were fit to a 4-parameter IC50 model.
# CYP3A4 = target: T2, CYP3A4 (Homo sapiens, UniProt P08684); assay: CYP3A4 inhibition (midazolam metabolism in human liver microsomes); type: in vitro ADME; conditions: substrate midazolam, read-out: CYP 3A4Ki
# T2 construct: host or cells: human liver microsomes
# Experimental: To evaluate the drug-drug interaction potential for compounds, the potency to inhibit the major metabolic cytochrome CYP450 isoform 3A4 was assessed. The inhibition constant Ki was determined for inhibition of the metabolism of midazolam, a CYP3A4 substrate.
# CYP3A4 Ki assays were performed following a recently published protocol with slight modifications (Di, L., Kerns, E. H., Li, S. Q., and Carter, G. T. (2007) Comparison of cytochrome P450 inhibition assays for drug discovery using human liver microsomes with LC-MS, rhCYP450 isozymes with fluorescence, and double cocktail with LC-MS. International Journal of Pharmaceutics 335: 1-11). The P450 inhibition assay was performed in 96-well plates at 37.2° C. in a shaking incubator. The compounds were diluted from 5 mM stocks in 100% DMSO and incubated at seven final concentrations from 0.078 to 10 μM (0.1% DMSO in each final incubation), with human liver microsomes (HLM) at a final protein concentration of 0.1 mg/mL protein and a substrate concentration ranging from 1.25 to 10 μM.
# The assay was standardized for both phosphate buffer (100 mM, pH 7.4) and the NADPH regenerating system (MgCl2, 3.3 mM; G6P, 3.3 mM; G6PD, 1 U/ml; NADP+, 1.3 mM). Eight replicate control samples (0.1% DMSO, no compound) were prepared. Assays (200 μL) were set up by mixing HLM+substrate stock, 10 μL of test article in 2% DMSO, and the substrate before initiating the reaction with the addition of the regenerating system mixture. Reactions were quenched following incubation for 20, 30 and 40 minutes as described following.
# After incubation for the specified time in a humidified shaking incubator, 20 μL of the reaction mixture was removed and the reactions were terminated by adding 200 μL of cold acetonitrile. Samples were centrifuged at 1000×g for 15 minutes in Solvinert filter plate. The receptor plate was dried via speed vacuum at 40° C. The sample was reconstituted with a reconstitution buffer composed of 10% acetonitrile, 10% DMSO, 80% H2O with an internal standard added at a concentration of 100 ng/ml. MS-Analysis was completed using LC-MS/MS. Formation of 1′-hydroxymidazolam was measured by monitoring a specific SRM (342>203) transition for the CYP3A4 metabolite.
# Data were expressed as the relative quantity of midazolam metabolite relative to control incubations. Initial velocities were obtained by multiplying the relative quantity by the initial substrate concentration and dividing by the incubation duration. Data were transformed to inverse of inivital velocity and expressed vs. inhibitor concentration [I] for determination of Ki by the Dixon method (Dixon, M. (1953) Biochemical Journal 55: 170-171) using where intercept [I]=−Ki was determined at multiple substrate concentrations.
# [3] = Hepatic intrinsic clearance in liver microsomes; type: in vitro ADME; conditions: human, pH 7.4, human liver microsomes, in vitro clearance, read-out: HLM CL
# Experimental: To 500 μl of 200 mM Na^+K^+phosphate buffer (pH 7.4), 100 μl of 1 mM EDTA solution was added followed by 100 μl of 2 mg protein/ml human liver microsomes. A 10 μl aliquot of test compound (20 mM stock in 50% acetonitrile) was diluted further with 40 μl of H2O (total assay volume […]. Assay mixture is incubated for 5 minutes at 37° C. The assay was initiated by addition of 250 μl of 4 mM NADPH solution. Incubation was continued at 37° C. Separate reaction mixtures were prepared for 0, 5, 10, 20, and 30 min durations. Individual reactions were halted by addition of 150 μl of 100% acetonitrile. Internal standard (10 μl of 100 ng/ml diazepam solution) was added. Concentration of the test compound in each separate reaction was measured using LC/MS/MS and a standard curve for the test compound according to standard procedures.
# The hepatic intrinsic clearance in liver microsome was determined by the following procedure described by Davies and Morris (Davies, B. and Morris, T. (19930) Physiological parameters in laboratory animals and humans. Pharm Res. 10:1093-1095) detailing the relationship of in vitro clearance to physiological parameters in animals and human subjects.
# The amount of compound remaining at each time point was expressed relative to the amount present in the initial (0 min) incubation. The relationship of relative amount vs. time was used to determine the half life of the compound in the microsome assay. The concentration independent rate constant, k1, was determined from rectangular hyperbolic fit:
# where T is time (in minutes), from the relationship of relative amount vs. time. Alternatively, k1 was determined from a transform of the equation, where
# Conversion to in vivo clearance was obtained from the relation (Davies and Morris, 1993):
# where v=velocity of metabolism, [S] is the concentration of the compound, and volumes are expressed in mL.
# memapsin 2 (Homo sapiens, UniProt P56817), sequence (P56817 46-501): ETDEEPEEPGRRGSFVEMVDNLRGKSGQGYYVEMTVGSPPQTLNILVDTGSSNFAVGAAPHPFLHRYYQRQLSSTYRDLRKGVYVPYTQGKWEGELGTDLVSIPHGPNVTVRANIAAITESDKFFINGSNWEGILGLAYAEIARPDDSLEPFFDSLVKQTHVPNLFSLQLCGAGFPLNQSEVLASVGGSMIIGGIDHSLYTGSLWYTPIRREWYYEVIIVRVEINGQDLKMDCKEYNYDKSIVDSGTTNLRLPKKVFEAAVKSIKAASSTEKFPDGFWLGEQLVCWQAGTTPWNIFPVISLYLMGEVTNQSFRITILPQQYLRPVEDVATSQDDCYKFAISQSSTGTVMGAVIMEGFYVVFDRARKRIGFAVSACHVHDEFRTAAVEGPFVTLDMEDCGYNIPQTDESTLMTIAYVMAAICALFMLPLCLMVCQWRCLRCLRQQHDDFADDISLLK
# T2 sequence (P08684 whole entry): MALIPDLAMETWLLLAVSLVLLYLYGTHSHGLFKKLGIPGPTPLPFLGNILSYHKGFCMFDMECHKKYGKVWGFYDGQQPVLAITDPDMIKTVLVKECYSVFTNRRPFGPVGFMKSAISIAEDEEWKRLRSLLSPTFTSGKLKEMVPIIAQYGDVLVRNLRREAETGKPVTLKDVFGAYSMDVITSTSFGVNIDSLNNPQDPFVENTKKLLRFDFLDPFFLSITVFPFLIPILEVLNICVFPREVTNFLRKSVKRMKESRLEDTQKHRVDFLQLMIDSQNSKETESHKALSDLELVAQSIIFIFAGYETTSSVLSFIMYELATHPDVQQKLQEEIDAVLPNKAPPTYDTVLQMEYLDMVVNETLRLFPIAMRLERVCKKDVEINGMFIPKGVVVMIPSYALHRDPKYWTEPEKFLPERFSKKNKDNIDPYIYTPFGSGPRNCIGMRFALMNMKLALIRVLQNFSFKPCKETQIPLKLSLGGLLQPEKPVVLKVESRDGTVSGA
# T1 sequence (G3IAK4 22-501): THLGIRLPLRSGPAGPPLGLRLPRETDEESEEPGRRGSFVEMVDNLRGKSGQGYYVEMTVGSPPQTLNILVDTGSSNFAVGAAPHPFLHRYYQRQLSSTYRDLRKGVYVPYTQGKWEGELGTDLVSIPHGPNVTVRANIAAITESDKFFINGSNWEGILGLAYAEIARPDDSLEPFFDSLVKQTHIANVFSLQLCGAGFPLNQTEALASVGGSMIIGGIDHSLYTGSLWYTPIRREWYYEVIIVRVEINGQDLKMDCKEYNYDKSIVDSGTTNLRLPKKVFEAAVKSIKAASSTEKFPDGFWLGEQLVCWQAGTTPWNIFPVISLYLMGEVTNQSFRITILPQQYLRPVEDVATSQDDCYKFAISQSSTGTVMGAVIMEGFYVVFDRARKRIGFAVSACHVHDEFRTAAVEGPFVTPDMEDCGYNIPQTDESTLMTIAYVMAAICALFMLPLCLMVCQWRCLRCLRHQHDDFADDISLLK
SMILES,Ki (memapsin 2 [1]),IC50 (memapsin 2 [2]),Ki (CYP3A4),CLint scaled at 200 μM [3]
"Cc1cc(C(=O)N[C@@H](Cc2ccccc2)[C@H](O)[C@H]2CCCN2)cc(C(=O)N2CCC[C@@H]2c2nc(C)co2)c1 [1-8, N-((1R,2S)-1-hydroxy-3-phenyl-1-((R)-pyrrolidin-2-yl)propan-2-yl)-3-methyl-5-((R)-2-(4-methyloxazol-2-yl)pyrrolidine-1-carbonyl)benzamide]",250 to 750 nM,> 1000 nM,> 10000 nM,< 400 mL/min/kg
"Cc1csc(CN(C)C(=O)c2cccc(C(=O)N[C@@H](Cc3ccccc3)[C@H](O)[C@H]3C[C@@H](OCc4ccccc4)CN3)c2)n1 [1-9, N1-((1R,2S)-1-((2R,4R)-4-(benzyloxy)pyrrolidin-2-yl)-1-hydroxy-3-phenylpropan-2-yl)-N3-methyl-N3-((4-methylthiazol-2-yl)methyl)isophthalamide]",< 250 nM,< 500 nM,1000 to 5000 nM,< 400 mL/min/kg
"C[C@@H](NC(=O)c1cc(C(=O)N[C@@H](Cc2ccccc2)[C@H](O)[C@H]2CCCN2)cc(N(C)S(C)(=O)=O)c1)c1ccccc1 [1-11, N1-((1R,2S)-1-hydroxy-3-phenyl-1-((R)-pyrrolidin-2-yl)propan-2-yl)-5-(N-methylmethylsulfonamido)-N3-((R)-1-phenylethyl)isophthalamide]",< 250 nM,< 500 nM,> 10000 nM,< 400 mL/min/kg
"Cc1csc(CN(C)C(=O)c2cc(C(=O)N[C@@H](Cc3ccccc3)[C@H](O)[C@H]3CCCN3)cc(-c3cnco3)c2)n1 [1-12, N1-((1R,2S)-1-hydroxy-3-phenyl-1-((R)-pyrrolidin-2-yl)propan-2-yl)-N3-methyl-N3-((4-methylthiazol-2-yl)methyl)-5-(oxazol-5-yl)isophthalamide]",< 250 nM,> 1000 nM,–,< 400 mL/min/kg
"Cc1csc(CN(C)C(=O)c2cc(C(=O)N[C@@H](Cc3ccccc3)[C@H](O)[C@H]3CCCN3)cc(-n3cccc3)c2)n1 [1-13, N1-((1R,2S)-1-hydroxy-3-phenyl-1-((R)-pyrrolidin-2-yl)propan-2-yl)-N3-methyl-N3-((4-methylthiazol-2-yl)methyl)-5-(1H-pyrrol-1-yl)isophthalamide]",< 250 nM,500 to 1000 nM,5000 to 10000 nM,< 400 mL/min/kg
"Cc1csc([C@H]2CCCN2C(=O)c2cc(C(=O)N[C@@H](Cc3ccccc3)[C@H](O)[C@H]3CCCN3)cc(N3CCCC3=O)c2)n1 [1-39, N-((1R,2S)-1-hydroxy-3-phenyl-1-((R)-pyrrolidin-2-yl)propan-2-yl)-3-((R)-2-(4-methylthiazol-2-yl)pyrrolidine-1-carbonyl)-5-(2-oxopyrrolidin-1-yl)benzamide]",< 250 nM,< 500 nM,–,< 400 mL/min/kg
"Cc1csc([C@H]2CCCN2C(=O)c2cc(C(=O)N[C@@H](Cc3ccccc3)[C@H](O)[C@H]3C[C@@H](OCc4ccccc4)CN3)cc(-c3ncco3)c2)n1 [1-52, N-((1R,2S)-1-((2R,4R)-4-(benzyloxy)pyrrolidin-2-yl)-1-hydroxy-3-phenylpropan-2-yl)-3-((R)-2-(4-methylthiazol-2-yl)pyrrolidine-1-carbonyl)-5-(oxazol-2-yl)benzamide]",< 250 nM,< 500 nM,1000 to 5000 nM,–
"Cc1csc([C@H]2CCCN2C(=O)c2cncc(C(=O)N[C@@H](Cc3ccccc3)[C@H](O)CNCc3cc(Cl)nc(N(C)C)c3)c2)n1 [2-1, N-((2S,3R)-4-((2-chloro-6-(dimethylamino)pyridin-4-yl)methylamino)-3-hydroxy-1-phenylbutan-2-yl)-5-((R)-2-(4-methylthiazol-2-yl)pyrrolidine-1-carbonyl)nicotinamide, reference compound]",< 250 nM,< 500 nM,–,> 700 mL/min/kg
"C=C(C)c1cccc(CNC[C@@H](O)[C@H](Cc2ccccc2)NC(=O)c2cccc(C(=O)N3CCC[C@@H]3c3nc(C)co3)c2)c1 [2-6, N-((2S,3R)-3-hydroxy-1-phenyl-4-(3-(prop-1-en-2-yl)benzylamino)butan-2-yl)-3-((R)-2-(4-methyloxazol-2-yl)pyrrolidine-1-carbonyl)benzamide, reference compound]",< 250 nM,< 500 nM,–,> 700 mL/min/kg
"Cc1cc(C(=O)N[C@@H](Cc2ccccc2)[C@H](O)CNCc2cncc(C(C)C)c2)cc(C(=O)N2CCC[C@@H]2c2nc(C)cs2)c1 [2-8, N-((2S,3R)-3-hydroxy-4-((5-isopropylpyridin-3-yl)methylamino)-1-phenylbutan-2-yl)-3-methyl-5-((R)-2-(4-methylthiazol-2-yl)pyrrolidine-1-carbonyl)benzamide, reference compound]",< 250 nM,< 500 nM,< 1000 nM,–
"Cc1csc(CN(C(=O)c2cccc(C(=O)N[C@@H](Cc3ccccc3)[C@H](O)CNCc3cccc(C(F)(F)F)c3)c2)C2CC2)n1 [2-9, N1-cyclopropyl-N3-((2S,3R)-3-hydroxy-1-phenyl-4-(3-(trifluoromethyl)benzylamino)butan-2-yl)-N1-((4-methylthiazol-2-yl)methyl)isophthalamide, reference compound]",< 250 nM,< 500 nM,< 1000 nM,–
"Cc1csc([C@H]2CCCN2C(=O)c2cccc(C(=O)N[C@@H](Cc3ccccc3)[C@H](O)CNCc3cccc(C(C)(C)C)c3)c2)n1 [2-10, N-((2S,3R)-4-(3-tert-butylbenzylamino)-3-hydroxy-1-phenylbutan-2-yl)-3-((R)-2-(4-methylthiazol-2-yl)pyrrolidine-1-carbonyl)benzamide, reference compound]",< 250 nM,< 500 nM,< 1000 nM,–
"Cc1cc(C(=O)N[C@@H](Cc2ccccc2)[C@H](O)CNCc2cncc(C(C)(C)C)c2)cc(C(=O)N2CCC[C@@H]2c2nc(C)co2)c1 [2-11, N-((2S,3R)-4-((5-tert-butylpyridin-3-yl)methylamino)-3-hydroxy-1-phenylbutan-2-yl)-3-methyl-5-((R)-2-(4-methyloxazol-2-yl)pyrrolidine-1-carbonyl)benzamide, reference compound]",< 250 nM,< 500 nM,< 1000 nM,–
